In US5674876A, “.rho.-heteroatom-substituted phenols and uses thereof” (Research Development Foundation, priority 1995, dated 1997):

Key:
Type in all cases: cell-based
Design in all cases: key to Inhibition (%) of DNA synthesis: TOXIC (viability): TOXIC: the compound at this concentration killed the cells or greatly lowered their viability
[1] = test system: MDA MB 435 (Metastic Human Breast Cancer Cell Line); assay: Inhibition of DNA synthesis (3H-TdR uptake) / proliferation, MB-435; details: for inhibition at 0.1 µg/mL / inhibition at 1 µg/mL / inhibition at 5 µg/mL / inhibition at 10 µg/mL / inhibition at 20 µg/mL: Homo sapiens, MDA-MB-435; for inhibition at 0.1 µg/mL: MB-435, 0.1 μg/mL; for inhibition at 0.1 µg/mL / inhibition at 1 µg/mL / inhibition at 5 µg/mL / Inhibition (%) of DNA synthesis: TOXIC (viability) / inhibition at 10 µg/mL / inhibition at 20 µg/mL: 48 h; for inhibition at 1 µg/mL: MB-435, 1 μg/mL
Description: (§1) Cells were cultured in the following media: 1) MDA MB 435 cells were cultured in Minimum Essential Media (MEM-HyClone, Logan, Utah) supplemented with 5% heat inactivated fetal bovine serum (HyClone), 2 mM glutamine (Sigma, St. Louis, Mo.), 1 mM sodium pyruvate (Sigma), 1X MEM Non-Essential Amino Acids (Sigma), 2X MEM Vitamins (Sigma), and 100 IU/mL penicillin/100 μg/mL streptomycin (HyClone); 2) MCF-7 McGuire cells were cultured in Minimum Essential Media (MEM-HyClone, Logan, Utah) supplemented with 5% heat inactivated fetal bovine serum (HyClone), 2 mM glutamine (Sigma, St. Louis, Mo.), and 100 IU/mL penicillin/100 μg/mL streptomycin (HyClone); 3) HL-60 cells were cultured in Iscoves Modified Dulbecco's Media (IMDM-HyClone, Logan, Utah) supplemented with 5% heat inactivated fetal bovine serum (HyClone), 2 mM glutamine (Sigma, St. Louis, Mo.), 1 mM sodium pyruvate (Sigma), 1X MEM Non-Essential Amino Acids (Sigma), 2X MEM Vitamins (Sigma), and 100 IU/mL penicillin/100 μg/mL streptomycin (HyClone); 2) MCF-7 McGuire cells were cultured in Minimum Essential Media (MEM-HyClone, Logan, Utah) supplemented with 5% heat inactivated fetal bovine serum (HyClone), 2 mM glutamine (Sigma, St. Louis, Mo.), and 100 IU/mL penicillin/100 μg/mL streptomycin (HyClone); 3) HL-60 cells were cultured in Iscoves Modified Dulbecco's Media (IMDM-HyClone, Logan, Utah) supplemented with 5% heat inactivated fetal bovine serum (HyClone), 2 mM glutamine (Sigma, St. Louis, Mo.), and 100 IU/mL penicillin/100 μg/mL streptomycin (HyClone).
(§2) All compounds were handled as if they were light sensitive. All compounds were initially dissolved in absolute ethanol and subsequently diluted to a final concentration of 0.5% ethanol with the appropriate medium.
(§3) For the bioassay, all cells were used at 2.5×10^5 /mL. Cells were treated with each of the compounds at concentrations of 20, 10, 5, 1, 0.1, and 0.01 μg/mL , and 200 μl of each treatment group were plated in quadruplicate in a 96 well culture plate (Corning, Corning N.Y.). Plates were done in duplicate, one plate to be used for viability testing and the other plate to examine ^3 H-TdR uptake (DNA synthesis).
(§4) Plates were cultured for 48 hours at 37° C., 5% CO2. Eight hours prior to the end of incubation, ^3 H-TdR was added to one of the duplicate plates and incubation continued for 8 hours. The cells were then harvested (trypsinization was required to harvest MDA MB 435 and MCF-7 McGuire). At the end of the incubation, the cells were removed from the wells (of the duplicate plate--no radioisotope added) and viability checked by the Trypan Blue Exclusion method. Percent viability and percent suppression of each treatment group were calculated.
(§5) With respect to the data shown in the Tables below, the data is arranged from greatest percent inhibition of DNA synthesis to lowest. […] "NT" refers to "Not Tested". The cells were cultured for 48 hours, pulsed 8 hours with tritiated thymidine, harvested and counted. MDA MB 435 is the abbreviation for the Metastic Human Breast Cancer Cell Line. MCF-7 McGuire is the abbreviation for the Estrogen Responsive Human Breast Cancer Cell Line and HL-60 is the Human Promyelocytic Leukemia Cell Line.

[2] = test system: MCF-7 McGuire (Estrogen Responsive Human Breast Cancer Cell Line); assay: Inhibition of DNA synthesis (3H-TdR uptake) / proliferation, MCF-7; details: for inhibition at 0.1 µg/mL / inhibition at 1 µg/mL / inhibition at 5 µg/mL / inhibition at 10 µg/mL / inhibition at 20 µg/mL: Homo sapiens, MCF7; for inhibition at 0.1 µg/mL: MCF-7, 0.1 μg/mL; for inhibition at 1 µg/mL: MCF-7, 1 μg/mL
Description: as §1, §2, §3, §4, §5

[3] = test system: HL-60 (Human Promyelocytic Leukemia Cell Line); assay: Inhibition of DNA synthesis (3H-TdR uptake) / proliferation, HL-60; details: for effect on HL-60 cells (in words): HL-60, no dose stated; for inhibition at 0.1 µg/mL / inhibition at 1 µg/mL / inhibition at 5 µg/mL / inhibition at 10 µg/mL / inhibition at 20 µg/mL: Homo sapiens; for inhibition at 0.1 µg/mL: HL-60, 0.1 μg/mL; for inhibition at 1 µg/mL: HL-60, 1 μg/mL; for inhibition at 5 µg/mL: HL-60, 5 μg/mL
Description: as §1, §2, §3, §4, §5

CC(=O)Oc1c(C)c2c3c(c1C)CCCN3CCC2 [Compound 6, 9-Acetoxy-8,10-dimethyljulolidine]
inhibition at 0.1 µg/mL [1]: 3%
inhibition at 1 µg/mL [1]: 0%
inhibition at 5 µg/mL ([1]; MB-435, 5 μg/mL): 80%
inhibition of proliferation (in words) ([1]; MB-435, 5 μg/mL): significantly inhibited the proliferation
Inhibition (%) of DNA synthesis: TOXIC (viability) ([1]; MB-435, 10 μg/mL): TOXIC
Inhibition (%) of DNA synthesis: TOXIC (viability) ([1]; MB-435, 20 μg/mL): TOXIC
inhibition of proliferation (in words) ([1]; MB-435, 10-20 μg/mL): significantly inhibited the proliferation
inhibition at 0.1 µg/mL ([2]; 48 h): 0%
inhibition at 1 µg/mL ([2]; 48 h): 10%
inhibition at 5 µg/mL ([2]; MCF-7, 5 μg/mL, 48 h): 13%
inhibition at 10 µg/mL ([2]; MCF-7, 10 μg/mL, 48 h): 37%
inhibition of proliferation (in words) ([2]; MCF-7, 10 μg/mL): significantly inhibited the proliferation
Inhibition (%) of DNA synthesis: TOXIC (viability) ([2]; MCF-7, 20 μg/mL, 48 h): TOXIC
inhibition of proliferation (in words) ([2]; MCF-7, 10-20 μg/mL): significantly inhibited the proliferation
inhibition of proliferation (in words) ([3]; HL-60, 10 μg/mL): significantly inhibited the proliferation
Inhibition (%) of DNA synthesis: TOXIC (viability) ([3]; HL-60, 20 μg/mL, 48 h): TOXIC
effect on HL-60 cells (in words) [3]: virtually no effect
inhibition at 0.1 µg/mL ([3]; 48 h): 3%
inhibition at 1 µg/mL ([3]; 48 h): 24%
inhibition at 5 µg/mL ([3]; 48 h): 59%
inhibition at 10 µg/mL ([3]; HL-60, 10 μg/mL, 48 h): 89%

CC(=O)N1CC(C)(C)c2c(C)c(O)c(C)c(C)c21 [Compound 31b]
inhibition at 0.1 µg/mL [1]: 0%
inhibition at 1 µg/mL [1]: 0%
inhibition at 5 µg/mL ([1]; MB-435, 5 μg/mL): 0%
inhibition at 10 µg/mL ([1]; MB-435, 10 μg/mL): 15%
inhibition at 20 µg/mL ([1]; MB-435, 20 μg/mL): 33%
inhibition of proliferation (in words) ([1]; MB-435, 10-20 μg/mL): significantly inhibited the proliferation
inhibition at 0.1 µg/mL ([2]; 48 h): 0%
inhibition at 1 µg/mL ([2]; 48 h): 0%
inhibition at 5 µg/mL ([2]; MCF-7, 5 μg/mL, 48 h): 29%
inhibition at 10 µg/mL ([2]; MCF-7, 10 μg/mL, 48 h): 18%
inhibition at 20 µg/mL ([2]; MCF-7, 20 μg/mL, 48 h): 22%
inhibition of proliferation (in words) ([2]; MCF-7, 10-20 μg/mL): significantly inhibited the proliferation
inhibition of proliferation (in words) ([3]; HL-60, 10-20 μg/mL): significantly inhibited the proliferation
inhibition at 0.1 µg/mL ([3]; 48 h): 0%
inhibition at 1 µg/mL ([3]; 48 h): 0%
inhibition at 5 µg/mL ([3]; 48 h): 6%
inhibition at 10 µg/mL ([3]; HL-60, 10 μg/mL, 48 h): 15%
inhibition at 20 µg/mL ([3]; HL-60, 20 μg/mL, 48 h): 28%

Cc1cc2c(c(C)c1O)C(C)CN2C(=O)C(C)C (stereo not drawn) [Compound 11b, N-Isobutyryl-5-hydroxy-3,4,6-trimethylindoline]
inhibition at 0.1 µg/mL [1]: 0%
inhibition at 1 µg/mL [1]: 21%
inhibition at 5 µg/mL ([1]; MB-435, 5 μg/mL): 21%
inhibition at 10 µg/mL ([1]; MB-435, 10 μg/mL): 22%
inhibition at 20 µg/mL ([1]; MB-435, 20 μg/mL): 36%
inhibition of proliferation (in words) ([1]; MB-435, 10 μg/mL): significantly inhibited the proliferation
inhibition at 0.1 µg/mL ([2]; 48 h): 24%
inhibition at 1 µg/mL ([2]; 48 h): 26%
inhibition at 5 µg/mL ([2]; MCF-7, 5 μg/mL, 48 h): 47%
inhibition at 10 µg/mL ([2]; MCF-7, 10 μg/mL, 48 h): 33%
inhibition at 20 µg/mL ([2]; MCF-7, 20 μg/mL, 48 h): 53%
inhibition of proliferation (in words) ([2]; MCF-7, 5 μg/mL): significantly inhibited the proliferation
effect on HL-60 cells (in words) [3]: virtually no effect
inhibition at 0.1 µg/mL ([3]; 48 h): 0%
inhibition at 1 µg/mL ([3]; 48 h): 0%
inhibition at 5 µg/mL ([3]; 48 h): 0%
inhibition at 10 µg/mL ([3]; HL-60, 10 μg/mL, 48 h): 0%
inhibition at 20 µg/mL ([3]; HL-60, 20 μg/mL, 48 h): 0%

CC(=O)Oc1c(C)cc2c(c1C)C(C)CN2C(=O)C(C)C (stereo not drawn) [Compound 12b, N-Isobutyryl-5-acetoxy-3,4,6-trimethylindoline]
inhibition at 0.1 µg/mL [1]: 1%
inhibition at 1 µg/mL [1]: 19%
inhibition at 5 µg/mL ([1]; MB-435, 5 μg/mL): 32%
inhibition at 10 µg/mL ([1]; MB-435, 10 μg/mL): 24%
inhibition at 20 µg/mL ([1]; MB-435, 20 μg/mL): 41%
inhibition of proliferation (in words) ([1]; MB-435, 5-20 μg/mL): significantly inhibited the proliferation
inhibition at 0.1 µg/mL ([2]; 48 h): 20%
inhibition at 1 µg/mL ([2]; 48 h): 47%
inhibition at 5 µg/mL ([2]; MCF-7, 5 μg/mL, 48 h): 38%
inhibition at 10 µg/mL ([2]; MCF-7, 10 μg/mL, 48 h): 58%
inhibition at 20 µg/mL ([2]; MCF-7, 20 μg/mL, 48 h): 70%
inhibition of proliferation (in words) ([2]; MCF-7, 5-20 μg/mL): significantly inhibited the proliferation
inhibition of proliferation (in words) ([3]; HL-60, 5-20 μg/mL): significantly inhibited the proliferation
inhibition at 0.1 µg/mL ([3]; 48 h): 0%
inhibition at 1 µg/mL ([3]; 48 h): 2%
inhibition at 5 µg/mL ([3]; 48 h): 32%
inhibition at 10 µg/mL ([3]; HL-60, 10 μg/mL, 48 h): 67%
inhibition at 20 µg/mL ([3]; HL-60, 20 μg/mL, 48 h): 46%
